Here are results for twelve compounds from ChEMBL document CHEMBL4613261, “Metabolic and Pharmaceutical Aspects of Fluorinated Compounds” (J Med Chem, 2020).

Structures are written as SMILES. pIC50: −log10 of the molar value.

The nature of data set [1]: Half life in human at 0.25 mg, iv administered as single dose measured up to 168 hrs. It is filed as ADME, organism-based. Conditions: in vivo.
Data set [2] can be described thus: Volume of distribution in human at 0.25 mg, iv administered as single dose measured up to 168 hrs. The class given is ADME, organism-based. The conditions noted are these: in vivo.
Data set [3] is described as follows: Oral bioavailability in human at 2 mg administered as single dose and measured up to 168 hrs. The conditions noted are these: in vivo. The class given is ADME, organism-based.
Data set [4] can be described thus: Photodegradation of compound in deionized H20 at 10 uM by HPLC analysis. The conditions noted are these: deionized water. It is filed as physicochemical.
Data set [5] in a line: Drug metabolism assessed as first order rate constant for 6-formyltryptophan formation. The class given is physicochemical.
The target of a further data set is T1, Cytochrome P450 2C8 (Homo sapiens, UniProt P10632).
T1 sequence (P10632 whole entry): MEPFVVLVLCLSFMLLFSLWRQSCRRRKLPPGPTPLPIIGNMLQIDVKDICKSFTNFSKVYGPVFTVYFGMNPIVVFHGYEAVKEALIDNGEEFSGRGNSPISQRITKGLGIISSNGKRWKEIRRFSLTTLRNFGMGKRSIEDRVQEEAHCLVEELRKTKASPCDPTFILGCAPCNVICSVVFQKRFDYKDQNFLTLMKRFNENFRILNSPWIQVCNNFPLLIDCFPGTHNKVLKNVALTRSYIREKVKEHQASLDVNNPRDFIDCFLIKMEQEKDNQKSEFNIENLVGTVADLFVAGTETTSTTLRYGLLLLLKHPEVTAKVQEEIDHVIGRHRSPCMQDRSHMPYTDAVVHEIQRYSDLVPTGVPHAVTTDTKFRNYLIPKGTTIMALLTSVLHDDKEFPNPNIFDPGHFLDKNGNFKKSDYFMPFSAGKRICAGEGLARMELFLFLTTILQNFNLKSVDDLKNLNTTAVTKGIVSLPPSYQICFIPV
Briefly: Inhibition of CYP2C8 (unknown origin) assessed as reduction in amodiaquine N-deethylation. The class given is ADME.

The target in a further data set is Cytochrome P450 2C9 (Homo sapiens, UniProt P11712). Briefly: Inhibition of CYP2C9 (unknown origin) assessed as reduction in diclofenac 4-hydroxylation. The class given is ADME.
A short description of data set [6]: Drug degradation assessed as 4-[[9-[(2-fluoro-4-pyridyl)methyl]-10-oxo-9-anthryl]methyl]-1H-pyridin-2-one metabolite formation by measuring relative abundance measured after preserving compound for 6 months at 40 degreeC by LC-MS/MS analysis. It is filed as physicochemical. Conditions: 4383 h.
Data set [7] can be described thus: Drug degradation in presence of 1% magnesium stearate and lactose monohydrate measured after preserving compound for 1 to 3 months at 40 degreeC by LC-MS/MS analysis. The class given is physicochemical. The conditions noted are these: read-out: Drug degradation.
The nature of data set [8]: Prodrug conversion in Sprague-Dawley rat assessed as acyclovir recovery in urine at 0.1 mmol/kg, po measured over 48 hrs by HPLC analysis. It is filed as ADME, organism-based. The conditions noted are these: in vivo.
Another data set relates to Homo sapiens. Nature of the data set: Induction of fluoride toxicity in human assessed as fluoride level in plasma at 200 mg, po BID administered for at least 6 months (reference value: 2.54 uM). It is filed as organism-based. The conditions noted are these: in vivo.
A short description of data set [9]: Lipophilicity, logD of the compound. The class given is physicochemical. The conditions noted are these: octanol/water.
Data set [10] can be described thus: Volume of distribution at steady state in Sprague-Dawley rat at 0.5 mg/kg, iv administered as single dose measured after 0.083 to 48 hrs. It is filed as ADME, organism-based. Conditions: in vivo, read-out: Vdss.
Data set [11] in a line: Volume of distribution at steady state in rhesus monkey at 0.1 mg/kg, iv administered as single dose measured after 0.083 to 48 hrs. It is filed as ADME, organism-based, Macaca mulatta. The conditions noted are these: in vivo, read-out: Vdss.
Data set [12] in a line: Drug recovery in bile duct-cannulated Sprague-Dawley rat feces at 10 mg/kg, po administered as single dose using 14C labelled compound measured after 48 hrs. It is filed as ADME, organism-based. The conditions noted are these: in vivo.
The nature of data set [13]: Drug recovery in bile duct-cannulated rhesus monkey feces at 10 mg/kg, po administered as single dose using 14C labelled compound measured after 96 hrs. The class given is ADME, organism-based, Macaca mulatta. The conditions noted are these: in vivo.
The nature of data set [14]: Elimination half life in human at 25 to 1200 mg, po administered as suspension measured after 5 to 816 hrs by HPLC-MS/MS analysis. It is filed as ADME, organism-based. Conditions: in vivo, read-out: beta t1/2.
Data set [15] in a line: Drug metabolism in human. It is filed as ADME. The conditions noted are these: read-out: Drug metabolism.
Data set [16] can be described thus: Half life in rat at 10 mg/kg, iv. The class given is ADME, organism-based. The conditions noted are these: in vivo.
Data set [17] deals with T2, Alanine racemase, biosynthetic (Escherichia coli K-12, UniProt P0A6B4). Briefly: Substrate activity at Escherichia coli B alanine racemase assessed as 2-oxobut-3-enoic acid formation. The class given is ADME.
Data set [18] concerns the target T2, Alanine racemase, biosynthetic. Briefly: Substrate activity at Escherichia coli B alanine racemase assessed as (S)-6-amino-2-((E)-1-carboxy-1-((E)-(3-hydroxy-2-methyl-5-(phosphonooxymethyl)pyridin-4-yl)methyleneamino)prop-1-en-2-ylamino)hexanoic acid formation. It is filed as ADME.
Data set [19] shares this target. Nature of the data set: Substrate activity at Escherichia coli B alanine racemase assessed as (2S)-6-amino-2-(((Z)-1-carboxyallylideneamino)(3-hydroxy-2-methyl-5-(phosphonooxymethyl)pyridin-4-yl)methylamino)hexanoic acid adduct formation. It is filed as ADME.

T2 sequence (P0A6B4 whole entry): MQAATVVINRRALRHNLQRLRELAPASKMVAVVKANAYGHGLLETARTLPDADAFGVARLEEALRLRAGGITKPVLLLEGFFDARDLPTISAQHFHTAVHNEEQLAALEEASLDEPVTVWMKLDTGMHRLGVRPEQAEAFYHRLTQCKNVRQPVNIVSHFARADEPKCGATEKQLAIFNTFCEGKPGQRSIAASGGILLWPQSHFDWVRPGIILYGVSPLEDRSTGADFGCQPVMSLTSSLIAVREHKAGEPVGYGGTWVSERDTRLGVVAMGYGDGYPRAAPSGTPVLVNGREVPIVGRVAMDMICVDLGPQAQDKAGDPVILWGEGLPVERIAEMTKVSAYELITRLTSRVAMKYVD
Chain of Cytochrome P450 2C9 (P11712 whole entry): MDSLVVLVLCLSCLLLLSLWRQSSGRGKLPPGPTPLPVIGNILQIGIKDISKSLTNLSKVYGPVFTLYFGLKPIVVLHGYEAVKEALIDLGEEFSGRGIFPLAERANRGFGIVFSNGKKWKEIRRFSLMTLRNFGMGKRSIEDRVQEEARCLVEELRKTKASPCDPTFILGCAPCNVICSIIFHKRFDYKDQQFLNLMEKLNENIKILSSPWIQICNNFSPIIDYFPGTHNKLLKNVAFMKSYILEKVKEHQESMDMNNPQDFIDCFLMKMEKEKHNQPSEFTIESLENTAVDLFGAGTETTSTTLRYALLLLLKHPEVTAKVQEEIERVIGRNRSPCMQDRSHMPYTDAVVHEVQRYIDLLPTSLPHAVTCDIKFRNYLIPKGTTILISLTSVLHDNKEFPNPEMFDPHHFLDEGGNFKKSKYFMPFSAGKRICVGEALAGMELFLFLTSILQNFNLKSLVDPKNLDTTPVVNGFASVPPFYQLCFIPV

Usually bioavailability stands for the share of a dose that reaches the circulation, judged against a reference dose that is usually intravenous. For `C[C@@H]1C[C@H]2[C@@H]3C[C@H](F)C4=CC(=O)C=C[C@]4(C)[C@@]3(F)[C@@H](O)C[C@]2(C)[C@@]1(OC(=O)c1ccco1)C(=O)SCF` [FLUTICASONE FUROATE], in data set [1], the half-life is 15.3 h. This compound also returned a Vd in [2] of 642 L. The bioavailability in [3] is 1.6%.

`CNCCC(Oc1ccc(C(F)(F)F)cc1)c1ccccc1` (configuration not stated) [FLUOXETINE] had a half-life at 10 µM in [4] of 55.2 h.

In the case of `N[C@@H](Cc1c[nH]c2cc(C(F)F)ccc12)C(=O)O`, the K in data set [5] stood at 0.0039 min⁻¹.

Usually pIC50 stands for −log10 of the IC50, conventionally taken in molar units. Consider `Cc1ccc(NC(=O)C2(c3ccc4c(c3)OC(F)(F)O4)CC2)nc1-c1cccc(C(=O)O)c1` [LUMACAFTOR], for which the pIC50 was 4.92 on Cytochrome P450 2C8 and 4.49 on Cytochrome P450 2C9.

As to `O=C1c2ccccc2C(Cc2ccnc(F)c2)(Cc2ccnc(F)c2)c2ccccc21`, the Activity in [6] came to 0.5%. Also, the degraded in data set [7] is under 0.1%.

Consider `CC(C)C(=O)OCCOCn1cnc2c(F)nc(N)nc21`, for which the Drug recovery in data set [8] was 51%.

On to `C[C@@H](c1ncncc1F)[C@](O)(Cn1cncn1)c1ccc(F)cc1F` [VORICONAZOLE], for which the Activity with Homo sapiens is 14.32 µM.

The logD is the decadic logarithm of the distribution of all forms, ionised or not, between an organic phase and buffer at a given pH. With `COc1cc(F)c(C(C)C)cc1-c1ccc(C(F)(F)F)cc1CN1C(=O)O[C@H](c2cc(C(F)(F)F)cc(C(F)(F)F)c2)[C@@H]1C` [ANACETRAPIB], in data set [9], the log distribution coefficient (logD) was 7.1. The Vd in [10] was 1.1 L/kg; in [11], 0.3 L/kg. Besides, the Drug recovery is recorded as 80% in data set [12] and 90% in data set [13].

For the compound `Cc1cc(Nc2ccc(S(F)(F)(F)(F)F)cc2)n2nc(C(C)(F)F)nc2n1` [DSM-265], the half-life in data set [14] was 86 to 118 h.

Take `FCOC(C(F)(F)F)C(F)(F)F` [SEVOFLURANE]: in data set [15], the metabolised lay in the range of 2 to 5%.

`CCNC(C)Cc1cccc(SC(F)(F)F)c1` (racemic) [TIFLOREX]: in data set [16], the half-life is 7.4 h.

Regarding `C=C=C(/N=C/c1c(COP(=O)(O)O)cnc(C)c1O)C(=O)O`, the values for the Activity in [17], in [18] and in [19] were 57%, 12% and 31%, respectively.
